Source: patent US20100120850A1, “Quinoline Derivatives, Pharmaceutical Compositions Comprising Them, and Their Use in Treating Central Nervous System and Peripheral Diseases” (priority 2007, published 2010)

Molecular target: T1, NK-3 receptor (Homo sapiens, UniProt P29371)
T1 construct: expressed in transfected cells
T1 sequence (P29371 1-465): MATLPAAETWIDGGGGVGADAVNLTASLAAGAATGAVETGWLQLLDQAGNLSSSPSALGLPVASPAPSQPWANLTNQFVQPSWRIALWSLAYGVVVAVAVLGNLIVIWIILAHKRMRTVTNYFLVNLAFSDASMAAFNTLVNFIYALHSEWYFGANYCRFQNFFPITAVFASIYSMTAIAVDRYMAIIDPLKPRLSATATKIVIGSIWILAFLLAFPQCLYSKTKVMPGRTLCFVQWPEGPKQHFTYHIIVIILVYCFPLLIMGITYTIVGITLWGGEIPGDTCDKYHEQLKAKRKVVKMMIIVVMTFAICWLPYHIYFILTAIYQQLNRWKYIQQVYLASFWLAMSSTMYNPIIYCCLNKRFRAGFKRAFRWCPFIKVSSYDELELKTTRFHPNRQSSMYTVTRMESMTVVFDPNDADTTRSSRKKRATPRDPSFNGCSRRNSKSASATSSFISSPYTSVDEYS
Assay: Assay for NK-3 functional activity (senktide-induced calcium mobilization, FLIPR)
Format: cell-based
Conditions: compared with the other diastereomer (sulfur center) separated by chiral SFC
Source text: A human NK-3 receptor gene was cloned using methods similar to those described for other human NK receptors (Aharony et al., Mol. Pharmacol. 45:9-19, 1994; Caccese et al., Neuropeptides 33, 239-243, 1999). The DNA sequence of the cloned NK-3 receptor differed from the published sequence (Buell et al., FEBS Letts. 299, 90-95, 1992; Huang et al., Biochem. Biophys. Res. Commun 184,966-972, 1992) having a silent single T>C base change at nucleotide 1320 of the coding sequence. Since the change is silent, the cloned gene provides a primary amino acid sequence for the encoded NK-3 receptor protein identical to the published sequence. […]
Generally, NK-3 functional activity may be assessed by using calcium mobilization assays in stable NK-3r-expressing cell lines. […] Agonists may be added to the cells and fluorescence responses continuously recorded for up to 5 min. […] The action of agonists may be assessed by observing their intrinsic activity in such a system.
NK-3 receptor expressing CHO cells were maintained in growth media (Ham's F12 medium, 10% FBS, 2 mM L-glutamine, and […] Hygromycin B). […] To quantify NK-3 receptor-induced calcium mobilization, cells were first washed with assay buffer consisting of Hanks' Balanced Salt Solution, 15 mM HEPES, and 2.5 mM probenecid, pH 7.4. […] The resulting data was analyzed using XLfit software (IDBS manufacturer) to determine EC50 and IC50 values.

Row | Structure (SMILES) | biological activity when tested in the assay for NK-3 functional activity
1 | C[S+]([O-])c1c(-c2ccccc2)nc2ccccc2c1C(=O)N[C@H](c1ccccc1)C1CC1 (single isomer, unassigned) [Example 8 second eluting compound] | substantially greater biological activity
2 | CC[C@H](NC(=O)c1c([S+](C)[O-])c(-c2ccccc2)nc2ccccc12)c1ccccc1 (single isomer, unassigned) [Example 2 first eluting compound] | substantially greater biological activity
